# Patent US5843437A, “A82846 antibiotics” (Eli Lilly and Company, priority 1995, dated 1998)
# Bridge positions count the residues as written; N and C are the ends. Square brackets hold non-standard residues; d marks the D form. Peptide text beside a SMILES is read from it. * marks the point of attachment. Ileψ(thiazoline)Cys = CC[C@H](C)[C@H](N)C1=N[C@H](C(=O)*)CS1; dOrn = NCCC[C@@H](N)C(=O)O
# What was measured:
# Streptococcus pyogenes = assay: protection of mice experimentally infected with test organism (Table X); format: in vivo; settings: mice, subcutaneous, 1 and 4 hours postinfection
# Experimental: (§1) The A82846 antibiotics have also shown in vivo antimicrobial activity against experimentally-induced infections in laboratory animals. When two doses of test compound were administered to mice experimentally infected with the test organism, the activity observed was measured as an ED50 value [effective dose in mg/kg to protect 50% of the test animals: see Warren Wick, et al., J. Bacteriol. 81, 233-235 (1961)].
# (§2) ^a mg/kg × 2; doses administered subcutaneously to mice 1 and 4
# Streptococcus pneumoniae = assay: as above; format: in vivo; settings: mice, subcutaneous, 1 and 4 hours postinfection
# Experimental: as §1, §2
# Staphylococcus aureus = assay: as above; format: in vivo; settings: mice, subcutaneous, 1 and 4 hours postinfection
# Experimental: as §1, §2
# [1] = tested on: Haemophilus influenzae 76; format: cell-based; settings: H. influenzae 76, ampicillin-resistant strain; agar dilution
# Experimental: (§3) The MIC's in Tables VII and VIII were determined by standard agar-dilution assays.
# [2] = tested on: Haemophilus influenzae C.L.; format: cell-based; settings: H. influenzae C.L., ampicillin-sensitive strain; agar dilution
# Experimental: as §3
# [3] = tested on: Streptococcus Group D X66; format: cell-based; settings: agar dilution
# Experimental: as §3
# [4] = tested on: Klebsiella pneumoniae X26; format: cell-based; settings: K. pneumoniae X26; agar dilution
# Experimental: as §3
# [5] = tested on: Staphylococcus epidermidis 270; format: cell-based; settings: S. epidermidis 270; agar dilution
# Experimental: as §3
# [6] = tested on: Streptococcus pyogenes C203; format: cell-based; settings: S. pyogenes C203; agar dilution
# Experimental: as §3
# [7] = tested on: Staphylococcus aureus V41; format: cell-based; settings: S. aureus V41, penicillin-resistant strain; agar dilution
# Experimental: as §3
# [8] = tested on: Pseudomonas aeruginosa X239; format: cell-based; settings: P. aeruginosa X239; agar dilution
# Experimental: as §3
# [9] = tested on: Staphylococcus epidermidis 222; format: cell-based; settings: S. epidermidis 222; agar dilution
# Experimental: as §3
# [10] = tested on: Streptococcus pneumoniae Park I; format: cell-based; settings: S. pneumoniae Park I; agar dilution
# Experimental: as §3
# [11] = tested on: Streptococcus Group D 2041; format: cell-based; settings: agar dilution
# Experimental: as §3
# [12] = tested on: Staphylococcus aureus X1.1; format: cell-based; settings: S. aureus X1.1; agar dilution
# Experimental: as §3
# Escherichia coli EC14 = format: cell-based; settings: E. coli EC14; agar dilution
# Experimental: as §3
# [13] = tested on: Staphylococcus aureus X400; format: cell-based; settings: S. aureus X400, methicillin-resistant strain; agar dilution
# Experimental: as §3
# [14] = tested on: Cultures A82846 and A82846.1; assay: resistance to antibiotics, antibiotic sensitivity discs on seeded agar plates
# A82846 = assay: resistance to antibiotics, sensitivity discs (Table III); format: cell-based, Nocardia orientalis; settings: culture A82846
# N. orientalis = assay: as above; format: cell-based, Nocardia orientalis
# N. aerocolonigenes = assay: as above; format: cell-based, Nocardia aerocolonigenes
compound,measurement,setting,value
CN[C@@H](CC(C)C)C(=O)N[C@H]1C(=O)N[C@H](CC(N)=O)C(=O)N[C@H]2C(=O)N[C@H]3C(=O)N[C@@H](C(=O)NC(C(=O)O)c4cc(O)cc(O)c4-c4cc3ccc4O)[C@@H](O[C@H]3C[C@](C)(N)[C@H](O)[C@@H](C)O3)c3ccc(cc3)Oc3cc2cc(c3O[C@H]2O[C@@H](CO)[C@@H](O)[C@H](O)[C@@H]2O[C@H]2C[C@](C)(N)[C@H](O)[C@@H](C)O2)Oc2ccc(cc2)[C@@H]1O (stereo partly drawn) [A82846C],ED50 Value,Streptococcus pyogenes,2.71 mg/kg × 2
same,ED50 Value,Streptococcus pneumoniae,5.87 mg/kg × 2
same,ED50 Value,Staphylococcus aureus,2.18 mg/kg × 2
same,MIC,[1],"-- (Not active at 128 mcg/mL, the highest level tested)"
same,MIC,[2],"-- (Not active at 128 mcg/mL, the highest level tested)"
same,MIC,[3],2 µg/mL
same,MIC,[4],"-- (Not active at 128 mcg/mL, the highest level tested)"
same,MIC,[5],1 µg/mL
same,MIC,[6],1 µg/mL
same,MIC,[7],1 µg/mL
same,MIC,[8],"-- (Not active at 128 mcg/mL, the highest level tested)"
same,MIC,[9],1 µg/mL
same,MIC,[10],2 µg/mL
same,MIC,[11],4 µg/mL
same,MIC,[12],1 µg/mL
same,MIC,Escherichia coli EC14,"-- (Not active at 128 mcg/mL, the highest level tested)"
same,MIC,[13],1 µg/mL
CC[C@H](C)[C@H](N)C1=N[C@H](C(=O)N[C@@H](CC(C)C)C(=O)N[C@H](CCC(=O)O)C(=O)N[C@H](C(=O)N[C@H]2CCCCNC(=O)[C@H](CC(N)=O)NC(=O)[C@@H](CC(=O)O)NC(=O)[C@H](Cc3cnc[nH]3)NC(=O)[C@@H](Cc3ccccc3)NC(=O)[C@H]([C@@H](C)CC)NC(=O)[C@@H](CCCN)NC2=O)[C@@H](C)CC)CS1 [bacitracin] ({Ileψ(thiazoline)Cys}-L[dE]IK[dOrn]I[dF]H[dD]N; lactam 4-C),antibiotic resistance,[14]; disc 10 units,resistant
CC(=O)OCC1=C(C(=O)O)N2C(=O)[C@@H](NC(=O)Cc3cccs3)[C@H]2SC1 [cephalothin],antibiotic resistance,[14]; disc 30 μg,resistant
O=C(N[C@H](CO)[C@H](O)c1ccc([N+](=O)[O-])cc1)C(Cl)Cl [chloramphenicol],antibiotic resistance,[14]; disc 30 μg,sensitive
CC[C@H]1OC(=O)[C@H](C)[C@@H](O[C@H]2C[C@@](C)(OC)[C@@H](O)[C@H](C)O2)[C@H](C)[C@@H](O[C@@H]2O[C@H](C)C[C@H](N(C)C)[C@H]2O)[C@](C)(O)C[C@@H](C)C(=O)[C@H](C)[C@@H](O)[C@]1(C)O [erythromycin],antibiotic resistance,[14]; disc 15 μg,resistant
CCC[C@@H]1C[C@@H](C(=O)N[C@@H]([C@H]2O[C@H](SC)[C@H](O)[C@@H](O)[C@H]2O)[C@@H](C)O)N(C)C1 [lincomycin],antibiotic resistance,[14]; disc 2 μg,resistant
C1N2CN3CN1CN(C2)C3 [mandelamine],antibiotic resistance,[14]; disc 3 μg,sensitive
CCn1cc(C(=O)O)c(=O)c2ccc(C)nc21 [nalidixic acid],antibiotic resistance,[14]; disc 30 μg,resistant
CO[C@@H]1[C@@H](OC(N)=O)[C@@H](O)[C@H](Oc2ccc3c(O)c(NC(=O)c4ccc(O)c(CC=C(C)C)c4)c(=O)oc3c2C)OC1(C)C [novobiocin],antibiotic resistance,[14]; disc 30 μg,sensitive
CO[C@H]1C[C@H](O[C@H]2[C@H](C)[C@@H](O[C@@H]3O[C@H](C)C[C@H](N(C)C)[C@H]3O)[C@@H](C)C[C@@]3(CO3)C(=O)[C@H](C)[C@@H](O)[C@@H](C)[C@@H](C)OC(=O)[C@@H]2C)O[C@@H](C)[C@@H]1O [oleandomycin],antibiotic resistance,[14]; disc 15 μg,resistant
CC1(C)S[C@@H]2[C@H](NC(=O)Cc3ccccc3)C(=O)N2[C@H]1C(=O)O [penicillin G],antibiotic resistance,[14]; disc 10 units,resistant
CO[C@H]1/C=C/O[C@@]2(C)Oc3c(C)c(O)c4c(O)c(c(/C=N/N5CCN(C)CC5)c(O)c4c3C2=O)NC(=O)/C(C)=C\C=C\[C@H](C)[C@H](O)[C@@H](C)[C@@H](O)[C@@H](C)[C@H](OC(C)=O)[C@@H]1C [rifampin],antibiotic resistance,[14]; disc 5 μg,sensitive
[H]/N=C(/N)N[C@H]1[C@H](O)[C@@H](O)[C@H](O[C@@H]2O[C@@H](C)[C@](O)(C=O)[C@H]2O[C@@H]2O[C@@H](CO)[C@H](O)[C@@H](O)[C@@H]2NC)[C@@H](N/C(N)=N\[H])[C@@H]1O [streptomycin],antibiotic resistance,[14]; disc 10 μg,resistant
Nc1ccc(S(=O)(=O)Nc2ncccn2)cc1 [sulfadiazine],antibiotic resistance,[14]; disc 300 μg,resistant
CN(C)C1C(=O)C(C(N)=O)=C(O)C2(O)C(=O)C3=C(O)c4c(O)cccc4C(C)(O)C3CC12 (stereo not drawn) [tetracycline],antibiotic resistance,[14]; disc 30 μg,sensitive
NC[C@H]1O[C@H](O[C@H]2[C@H](O)[C@@H](O[C@H]3O[C@H](CO)[C@@H](O)[C@H](N)[C@H]3O)[C@H](N)C[C@@H]2N)[C@H](N)C[C@@H]1O [tobramycin],antibiotic resistance,[14]; disc 10 μg,resistant
COc1cc(Cc2cnc(N)nc2N)cc(OC)c1OC [trimethoprim],antibiotic resistance,[14]; disc 5 μg,resistant
gentamicin,Resistance to,A82846; 10 μg,+
same,Resistance to,N. orientalis; 10 μg,-
same,antibiotic resistance,[14]; disc 10 μg,resistant
same,Resistance to,N. aerocolonigenes; 10 μg,-
neomycin,Resistance to,A82846; 30 μg,-
same,Resistance to,N. orientalis; 30 μg,-
same,antibiotic resistance,[14]; disc 30 μg,sensitive
same,Resistance to,N. aerocolonigenes; 30 μg,-
polymixin B,Resistance to,A82846; 300 units,+
same,Resistance to,N. orientalis; 300 units,+
same,antibiotic resistance,[14]; disc 300 units,resistant
same,Resistance to,N. aerocolonigenes; 300 units,+
